{"source": "patent US20240310360A1", "about": "“METHOD OF […] RESPONSE OF CELL GROUP TO TEST SUBSTANCE” (CANON KABUSHIKI KAISHA, priority 2023, published 2024)", "key": {"PBMCs [1]": {"test_system": "PBMCs", "assay": "Autofluorescence imaging FAD/NADH ratio of PBMCs after antigen stimulation (Example 2)", "assay_type": "cell-based", "conditions": "peptide solution 10 nM, PBMCs without preculturing", "experimental": "PBMCs having reactivity to a test substance that differs from the reactivity in Example 1 were used here. The PBMCs used here were manufactured by Cellular Technology Limited, and thawed by following a manual provided by the manufacturer. Unlike Example 1, preculturing was skipped and the PBMCs were immediately presented to a test for examining reactivity to a test substance.\nThe thawed PBMCs were suspended in the CTL-Test Medium at a cell concentration of 7.2×10^6 cells/mL, and 250 μL each was seeded in a 24-well plate. As the test substance, a peptide solution manufactured by Cellular Technology Limited, specifically, CMV pp65 (495-503) Peptide (having a peptide concentration of 10 nM) was used, and 250 μL of this peptide solution was added to each of the wells containing the cells.\nAs a control cell group to which no test substances were added, cells to which 250 μL each of CTL-Test Medium was added instead of a peptide solution were used. After antigen stimulation, the cells were left to stand for 1 hour to 24 hours in a 5% CO2 incubator. From each well, an entire amount of cell suspension solution was collected and subjected to 5 minutes of centrifugation at 300 G. After the centrifugation, a supernatant was removed and cell pellets were suspended in 1,000 μL of PBS. Further, the resultant cell suspension solution was diluted 5 times with the PBS. Then, 100 μL of the diluted cell suspension solution was seeded onto a cover glass part (having a diameter of 16 mm) of a 35-mm glass bottom dish, and was used for bright field observation and autofluorescence observation.\nThe subsequent bright-field image acquisition, autofluorescence image acquisition, extraction and analysis of the color information of the autofluorescence images were performed by the same methods as the methods in Example 1."}, "PBMCs [2]": {"test_system": "PBMCs", "conditions": "PBMCs used in Example 2; confirmed in advance by the manufacturer; cited from earlier work"}, "PBMCs [3]": {"test_system": "PBMCs", "conditions": "PBMCs used in Example 1; confirmed in advance by the manufacturer; cited from earlier work"}}, "note": "Read-outs that look alike come from different tables or passages of the source.", "data": [{"substance": "CMV pp65 (495-503) Peptide: peptide solution manufactured by Cellular Technology Limited; peptide that binds directly to an MHC (NLVPMVATV; UniProt P06725 495-503, looked up, fragment)", "values": [{"measurement": "drop in FAD/NADH ratio compared to PBMCs with no test substance added", "setting": "PBMCs [1]; 1 hour of stimulation", "result": "reproduced"}, {"measurement": "drop in FAD/NADH ratio compared to PBMCs with no test substance added", "setting": "PBMCs [1]; 4 hours after stimulation", "result": "hardly observed"}, {"measurement": "drop in FAD/NADH ratio compared to PBMCs with no test substance added", "setting": "PBMCs [1]; period from 4 hours to 24 hours after stimulation", "result": "substantially no drop"}, {"measurement": "reactivity of the PBMCs to the peptide (ELISpot test)", "setting": "PBMCs [2]", "result": "react strongly"}, {"measurement": "reactivity of the PBMCs to the peptide (ELISpot test)", "setting": "PBMCs [3]", "result": "react weakly"}]}]}
